Results from publication PMC12028158, “Synthesis and In Vitro Evaluation of the Anticancer Effect of Novel Phosphonium Vindoline Derivatives” (International Journal of Molecular Sciences, 2025).

Legend:
Format in all cases: cell-based
CCRF-CEM [1] = test: NCI60 five-dose screen; details: Homo sapiens, Leukemia, five-dose, read-out: GI50
K-562 = test: NCI60 five-dose screen; details: Homo sapiens, K562; K-562, Leukemia, five-dose; read-out: GI50
RPMI-8226 = test: NCI60 five-dose screen; details: Homo sapiens; RPMI-8226, Leukemia, five-dose; read-out: GI50
EKVX [2] = test: NCI60 five-dose screen; details: Homo sapiens, Non-small Cell Lung Cancer, five-dose, read-out: GI50
HOP-62 [3] = test: NCI60 five-dose screen; details: Homo sapiens; HOP-62, Non-small Cell Lung Cancer, five-dose; read-out: GI50
NCI-H460 = test: NCI60 five-dose screen; details: Homo sapiens; NCI-H460, Non-small Cell Lung Cancer, five-dose; read-out: GI50
NCI-H522 [4] = test: NCI60 five-dose screen; details: Homo sapiens; NCI-H522, Non-small Cell Lung Cancer, five-dose; read-out: GI50
HCC-2998 = test: NCI60 five-dose screen; details: Homo sapiens; HCC-2998, Colon Cancer, five-dose; read-out: GI50
SW-620 = test: NCI60 five-dose screen; details: Homo sapiens; SW-620, Colon Cancer, five-dose; read-out: GI50
U251 [5] = test: NCI60 five-dose screen; details: Homo sapiens, U-251, U251, CNS Cancer, five-dose; read-out: GI50
LOX IMVI [6] = test: NCI60 five-dose screen; details: Homo sapiens, Melanoma, five-dose, read-out: GI50
IGROV1 [7] = test: NCI60 five-dose screen; details: Homo sapiens, IGROV-1; IGROV1, Ovarian Cancer, five-dose; read-out: GI50
OVCAR-5 = test: NCI60 five-dose screen; details: Homo sapiens; OVCAR-5, Ovarian Cancer, five-dose; read-out: GI50
ACHN = test: NCI60 five-dose screen; details: Homo sapiens, Renal Cancer, five-dose, read-out: GI50
CAKI-1 = test: NCI60 five-dose screen; details: Homo sapiens; CAKI-1, Renal Cancer, five-dose; read-out: GI50
RXF 393 = test: NCI60 five-dose screen; details: Homo sapiens; RXF 393, Renal Cancer, five-dose; read-out: GI50
TK-10 = test: NCI60 five-dose screen; details: Homo sapiens; TK-10, Renal Cancer, five-dose; read-out: GI50
PC-3 = test: NCI60 five-dose screen; details: Homo sapiens; PC-3, Prostate Cancer, five-dose; read-out: GI50
T-47D [8] = test: NCI60 five-dose screen; details: Homo sapiens, T47D; T-47D, Breast Cancer, five-dose; read-out: GI50
MDA-MB-468 = test: NCI60 five-dose screen; details: Homo sapiens, MDA-MB-468, MDA-MB-468, Breast Cancer, five-dose; read-out: GI50
Leukemia panel = test: NCI60 five-dose screen, panel mean; details: Homo sapiens; mean over Leukemia panel; read-out: Mean GI50
Melanoma panel = test: NCI60 five-dose screen, panel mean; details: Homo sapiens; mean over Melanoma panel; read-out: Mean GI50
Prostate Cancer panel = test: NCI60 five-dose screen, panel mean; details: Homo sapiens; mean over Prostate Cancer panel; read-out: Mean GI50
CCRF-CEM [9] = test: NCI60 one-dose screen; details: Homo sapiens, 10 μM, one-dose, read-out: Growth percent
HL-60(TB) = test: NCI60 one-dose screen; details: Homo sapiens; HL-60(TB), 10 μM, one-dose; read-out: Growth percent
SR = test: NCI60 one-dose screen; details: Homo sapiens, 10 μM, one-dose, read-out: Growth percent
EKVX [10] = test: NCI60 one-dose screen; details: Homo sapiens, 10 μM, one-dose, read-out: Growth percent
HOP-62 [11] = test: NCI60 one-dose screen; details: Homo sapiens; HOP-62, 10 μM, one-dose; read-out: Growth percent
HOP-92 = test: NCI60 one-dose screen; details: Homo sapiens; HOP-92, 10 μM, one-dose; read-out: Growth percent
NCI-H522 [12] = test: NCI60 one-dose screen; details: Homo sapiens; NCI-H522, 10 μM, one-dose; read-out: Growth percent
SF-539 = test: NCI60 one-dose screen; details: Homo sapiens; SF-539, 10 μM, one-dose; read-out: Growth percent
U251 [13] = test: NCI60 one-dose screen; details: Homo sapiens, U-251; U251, 10 μM, one-dose; read-out: Growth percent
LOX IMVI [14] = test: NCI60 one-dose screen; details: Homo sapiens, 10 μM, one-dose, read-out: Growth percent
MDA-MB-435 = test: NCI60 one-dose screen; details: Homo sapiens; MDA-MB-435, 10 μM, one-dose; read-out: Growth percent
SK-MEL-2 = test: NCI60 one-dose screen; details: Homo sapiens; SK-MEL-2, 10 μM, one-dose; read-out: Growth percent
UACC-257 = test: NCI60 one-dose screen; details: Homo sapiens; UACC-257, 10 μM, one-dose; read-out: Growth percent
UACC-62 = test: NCI60 one-dose screen; details: Homo sapiens; UACC-62, 10 μM, one-dose; read-out: Growth percent
IGROV1 [15] = test: NCI60 one-dose screen; details: Homo sapiens, IGROV-1; IGROV1, 10 μM, one-dose; read-out: Growth percent
NCI/ADR-RES = test: NCI60 one-dose screen; details: Homo sapiens, 10 μM, one-dose, read-out: Growth percent
786-0 = test: NCI60 one-dose screen; details: Homo sapiens; 786-0, 10 μM, one-dose; read-out: Growth percent
A498 = test: NCI60 one-dose screen; details: Homo sapiens; A498, 10 μM, one-dose; read-out: Growth percent
UO-31 = test: NCI60 one-dose screen; details: Homo sapiens; UO-31, 10 μM, one-dose; read-out: Growth percent
DU-145 = test: NCI60 one-dose screen; details: Homo sapiens; DU-145, 10 μM, one-dose; read-out: Growth percent
MCF7 = test: NCI60 one-dose screen; details: Homo sapiens; MCF7, 10 μM, one-dose; read-out: Growth percent
MDA-MB-231/ATCC = test: NCI60 one-dose screen; details: Homo sapiens; MDA-MB-231/ATCC, 10 μM, one-dose; read-out: Growth percent
HS 578T = test: NCI60 one-dose screen; details: Homo sapiens; HS 578T, 10 μM, one-dose; read-out: Growth percent
T-47D [16] = test: NCI60 one-dose screen; details: Homo sapiens, T47D; T-47D, 10 μM, one-dose; read-out: Growth percent

CC[C@]12C=CCN3CC[C@@]4(c5ccc(OC)cc5N(C)[C@H]4[C@@](O)(C(=O)OC)[C@@H]1OC(=O)CCC[P+](c1ccccc1)(c1ccccc1)c1ccccc1)[C@@H]32 [compound 3, reference compound]
GI50 (CCRF-CEM [1]): 487 nM
GI50 (K-562): 360 nM
GI50 (RPMI-8226): 219 nM
GI50 (EKVX [2]): 470 nM
GI50 (HOP-62 [3]): 1370 nM
GI50 (NCI-H460): 1220 nM
GI50 (NCI-H522 [4]): 216 nM
GI50 (HCC-2998): 436 nM
GI50 (SW-620): 1200 nM
GI50 (U251 [5]): 371 nM
GI50 (LOX IMVI [6]): 858 nM
GI50 (IGROV1 [7]): 237 nM
GI50 (OVCAR-5): 1200 nM
GI50 (ACHN): 4530 nM
GI50 (CAKI-1): 5570 nM
GI50 (RXF 393): 705 nM
GI50 (TK-10): 1480 nM
GI50 (PC-3): 204 nM
GI50 (T-47D [8]): 192 nM
GI50 (MDA-MB-468): 126 nM
GI50 (Leukemia panel): 360 nM
GI50 (Melanoma panel): 450 nM
GI50 (Prostate Cancer panel): 640 nM
activity at 10 µM (CCRF-CEM [9]): 11.2%
activity at 10 µM (HL-60(TB)): -53.1%
activity at 10 µM (SR): 9.57%
activity at 10 µM (EKVX [10]): 10.3%
activity at 10 µM (HOP-62 [11]): 2.56%
activity at 10 µM (HOP-92): -40%
activity at 10 µM (NCI-H522 [12]): -35.4%
activity at 10 µM (SF-539): 16.2%
activity at 10 µM (U251 [13]): 4.03%
activity at 10 µM (LOX IMVI [14]): 8.81%
activity at 10 µM (MDA-MB-435): -21.6%
activity at 10 µM (SK-MEL-2): -65.3%
activity at 10 µM (UACC-257): -27.3%
activity at 10 µM (UACC-62): -59.3%
activity at 10 µM (IGROV1 [15]): -0.06%
activity at 10 µM (NCI/ADR-RES): 100%
activity at 10 µM (786-0): 20.6%
activity at 10 µM (A498): 124%
activity at 10 µM (UO-31): 80%
activity at 10 µM (DU-145): 18%
activity at 10 µM (MCF7): -3.34%
activity at 10 µM (MDA-MB-231/ATCC): 1.29%
activity at 10 µM (HS 578T): 25.5%
activity at 10 µM (T-47D [16]): 1.08%
